Measurements taken from patent US5620997A, “Isothiazolones” (Warner-Lambert Company, priority 1995, dated 1997).
Entries after “also recorded” stand apart in the source; their conditions may differ.

Assays:
HIV = assay: CEM cell assay, anti-HIV activity (XTT, protection from viral cytopathic effects); format: cell-based; conditions: Human immunodeficiency virus 1, CCRF-CEM; Effective concentration which protects cells from viral cytopathic effects
Excerpt: The test systems utilized to establish the cellular antiviral activity of the isothiazolones of Formula I are well recognized in the art and are routinely employed for such purpose. For example, the assay utilized to evaluate the compounds activity against the HIV virus is that employed by the U.S. National Cancer Institute as described by Weislow O. S., et al., J. Natl. Cancer Inst., 1989;81:577-586, incorporated herein by reference.
The procedure is designed to detect agents acting at any stage of the virus reproductive cycle. The assay basically involves the killing of T4 lymphocytes by HIV. Small amounts of HIV are added to cells, and at least two complete cycles of virus reproduction are necessary to obtain the required cell killing. Agents which interact with virions, cells, or virus gene-products to interfere with viral activities will protect cells from cytolysis. The system is automated in several features to accommodate large numbers of candidate agents, and is generally designed to detect anti-HIV activity. However, compounds which degenerate or are rapidly metabolized in the culture conditions may not show activity in this screen.
Yet another test system employed to determine antiviral activity is called the CEM cell assay.
T4 lymphocytes (CEM cell line) are exposed to HIV at a virus to cell ratio approximately 0.05, and plated along with noninfected control cells in 96-well microliter plates.
Candidate agent is dissolved in dimethyl sulfoxide (unless otherwise noted), then diluted 1:200 in cell culture medium. Further dilutions (half-log10) are prepared before adding to an equal volume of medium containing either infected or noninfected cells.
Cultures are incubated at 37° in a 5% carbon dioxide atmosphere for 6 or 7 days. The tetrazolium salt, XTT, is added to all wells, and cultures are incubated to allow formazan color development by viable cells J. National Cancer Institute, 1989;81:577-586. Individual wells are analyzed spectrophotometrically to quantitate formazan production, and in addition are viewed microscopically for detection of viable cells confirmation of protective activity.
Drug-tested virus-infected cells are compared with drug-treated noninfected cells and with other appropriate controls (untreated infected and untreated noninfected cells, drug-contain wells without cells, etc.) on the same plate. Data are reviewed in comparison with other tests done at the same time and a determination about activity is made.

[1] = CEM cell assay, toxicity (growth inhibition); format: cell-based; conditions: human, cem cells; Toxic concentration which inhibits the growth of cells 50% relative to control; read-out: CEM Cell Assay TC50
Protocol: T4 lymphocytes (CEM cell line) are exposed to HIV at a virus to cell ratio approximately 0.05, and plated along with noninfected control cells in 96-well microliter plates. Candidate agent is dissolved in dimethyl sulfoxide (unless otherwise noted), then diluted 1:200 in cell culture medium. Further dilutions (half-log10) are prepared before adding to an equal volume of medium containing either infected or noninfected cells. Cultures are incubated at 37° in a 5% carbon dioxide atmosphere for 6 or 7 days. The tetrazolium salt, XTT, is added to all wells, and cultures are incubated to allow formazan color development by viable cells J. National Cancer Institute, 1989;81:577-586. Individual wells are analyzed spectrophotometrically to quantitate formazan production, and in addition are viewed microscopically for detection of viable cells confirmation of protective activity. Drug-tested virus-infected cells are compared with drug-treated noninfected cells and with other appropriate controls (untreated infected and untreated noninfected cells, drug-contain wells without cells, etc.) on the same plate. Data are reviewed in comparison with other tests done at the same time and a determination about activity is made.

[2] = target: T1, rabbit reticulocyte 15-LO (Oryctolagus cuniculus, UniProt P12530); assay: Colorimetric Assay of 15-LO Inhibition; format: biochemical; conditions: colorimetric method
T1 construct: rabbit reticulocyte 15-LO; from tissue; host or cells: rabbit reticulocytes
T1 sequence (P12530 1-663): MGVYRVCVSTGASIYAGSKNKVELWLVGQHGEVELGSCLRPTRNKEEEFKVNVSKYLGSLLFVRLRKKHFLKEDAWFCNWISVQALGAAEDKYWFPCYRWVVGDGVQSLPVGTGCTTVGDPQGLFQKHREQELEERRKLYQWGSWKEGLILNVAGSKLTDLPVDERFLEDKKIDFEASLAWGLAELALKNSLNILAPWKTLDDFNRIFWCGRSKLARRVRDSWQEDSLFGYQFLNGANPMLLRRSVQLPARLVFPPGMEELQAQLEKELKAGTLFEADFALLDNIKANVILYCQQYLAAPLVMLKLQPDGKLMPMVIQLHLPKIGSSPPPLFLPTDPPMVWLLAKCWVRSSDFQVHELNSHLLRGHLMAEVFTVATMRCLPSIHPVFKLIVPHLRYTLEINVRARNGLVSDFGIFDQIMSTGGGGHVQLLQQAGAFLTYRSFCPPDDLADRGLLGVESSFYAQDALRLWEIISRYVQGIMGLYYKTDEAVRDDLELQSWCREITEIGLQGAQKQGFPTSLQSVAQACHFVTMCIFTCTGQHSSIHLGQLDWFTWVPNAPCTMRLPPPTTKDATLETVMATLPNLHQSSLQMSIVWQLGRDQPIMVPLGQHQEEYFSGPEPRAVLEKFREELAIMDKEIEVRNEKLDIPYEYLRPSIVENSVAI
Protocol: The isothiazolones of Formula I are also effective for treating inflammation and atherosclerosis. A characteristic feature of atherosclerosis is the accumulation of cholesteryl ester engorged from foam cells. Foam cells are derived from circulating monocytes which invade artery walls in response to hypercholesterolemia, and mature into tissue macrophages. […] Specifically, representative compounds were evaluated by the methods described by Auerbach, et al., Analytical Biochemistry, 1992;201:375-380. Two in vitro assays were utilized, both utilizing rabbit reticulocyte 15-LO, and linoleic acid as substrate, to enzymatically produce a peroxide oxidation product known as 13(S)-HPODE. N-Benzoyl leucomethylene blue was utilized as a colorimetric reagent for detection and quantification of the peroxide formation. Also, HPLC was utilized to quantify the oxidation following incubation at 4° C. for 10 minutes.
Table 3 gives the concentration of compound required to inhibit 50% of the activity of 15-LO (IC50) when measured by the HPLC method of Auerbach, et al. Table 4 gives the percent inhibition of 15-LO activity when evaluated by the colorimetric method.

NCp7 = target: T2, NCp7 (Human immunodeficiency virus type 1 (NEW YORK-5 ISOLATE), UniProt P12493); assay: Electrospray ionization mass spectral analysis of NCp7 with compound; format: binding, HIV-1; conditions: 40 μM NCp7, ammonium acetate buffer pH 6, 320 μM compound, 3 minutes
T2 construct: same protein as the TSQ zinc-ejection assay
Protocol: Electrospray ionization mass spectral analysis was also performed. Using 40 μM NCp7 in ammonium acetate buffer at pH 6, 320 μM 4-(3-oxo-3h-benzo[d]isothiazol-2-yl)benzenesulfonamide (Example 1) in acetonitrile was added. […] In addition, a peak at 6740 corresponding to the NCp7+308+Zn appeared.

NS(=O)(=O)c1ccc(-n2sc3ccccc3c2=O)cc1 [Example 1, 4-(3-Oxo-3h-benzo[d]isothiazol-2-yl)-benzenesulfonamide]
EC50 (HIV): 5.1 µM
CC50 [1]: 21 µM
inhibition at 10 µM [2]: 35%
Zinc extrusion and covalent adduct formation by electrospray mass spectrometry (NCp7): a mass peak at 6360 (100%) corresponding to apo NCp7 (loss of 2 Zn) appeared; also recorded: the extrusion of zinc and the formation of a covalent bond between the cysteine of the zinc finger and the isothiazolone
